Assay results from ChEMBL document CHEMBL1201862, “PubChem BioAssay data set” (2004).
Active and inactive are the calls of the source.

What was measured:
[1] = biological target: Neurotensin receptor type 1 (Homo sapiens, UniProt P30989); format: functional;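 also: Image-based confirmatory dose-response assay measuring agonist activity at NTR1; NTR1-expressing U2OS osteosarcoma cells imaged for beta-arrestin GFP spot formation; agonist potency where compounds increase beta-arrestin recruitment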
[2] = system: Streptococcus sp. 'group A'; experiment: Streptococcus pyogenes SK(-)GAS viability under kanamycin – luminescence, BacTiterGlo, confirmation, counter-screen for streptokinase expression inhibitor project, dose response (AID 1900); format: functional, organism-based
[3] = biological target: T1, Microphthalmia-associated transcription factor (Homo sapiens, UniProt O75030); experiment: reducers of TRPM1 reporter luminescence, concentration series – cell-based, SK-MEL-5, cherry-picked, set 3, MITF inhibitor project, dose response (AID 493073); format: functional;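 also: SK-MEL-5 melanoma cells with luciferase driven by the MITF target TRPM1 promoter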
T1 sequence (O75030 whole entry): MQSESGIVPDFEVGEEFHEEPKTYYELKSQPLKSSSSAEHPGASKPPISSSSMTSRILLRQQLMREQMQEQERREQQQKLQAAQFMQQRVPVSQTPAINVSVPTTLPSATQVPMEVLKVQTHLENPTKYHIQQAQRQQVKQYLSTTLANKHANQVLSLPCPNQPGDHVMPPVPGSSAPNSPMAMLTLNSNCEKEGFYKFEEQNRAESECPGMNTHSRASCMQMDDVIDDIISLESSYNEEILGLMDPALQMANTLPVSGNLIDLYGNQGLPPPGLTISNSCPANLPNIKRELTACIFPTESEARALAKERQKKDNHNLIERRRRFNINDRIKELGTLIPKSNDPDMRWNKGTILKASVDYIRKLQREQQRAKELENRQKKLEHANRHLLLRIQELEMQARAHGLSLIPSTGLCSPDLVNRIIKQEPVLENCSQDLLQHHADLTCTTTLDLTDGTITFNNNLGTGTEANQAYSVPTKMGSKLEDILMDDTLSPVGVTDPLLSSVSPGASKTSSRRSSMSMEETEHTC

[4] = system: Streptococcus; experiment: GAS UMAA2166 growth inhibition – luminescence, BacTiterGlo, counter-screen for streptokinase expression inhibitor project, dose response (AID 1915); format: functional, organism-based; conditions: read-out: EC50;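 also: potency for reduction of bacterial viability or growth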
[5] = biological target: T2, Streptokinase A (Streptococcus pyogenes serotype M1, UniProt P10520); experiment: viability-normalized secreted streptokinase activity reduction – plasminogen activation absorbance, OD405, dose response (AID 1914); format: functional, Streptococcus pyogenes M1 GAS;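 also: secreted streptokinase activity via plasminogen activation per viability signal from cell pellet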
T2 sequence (P10520 whole entry): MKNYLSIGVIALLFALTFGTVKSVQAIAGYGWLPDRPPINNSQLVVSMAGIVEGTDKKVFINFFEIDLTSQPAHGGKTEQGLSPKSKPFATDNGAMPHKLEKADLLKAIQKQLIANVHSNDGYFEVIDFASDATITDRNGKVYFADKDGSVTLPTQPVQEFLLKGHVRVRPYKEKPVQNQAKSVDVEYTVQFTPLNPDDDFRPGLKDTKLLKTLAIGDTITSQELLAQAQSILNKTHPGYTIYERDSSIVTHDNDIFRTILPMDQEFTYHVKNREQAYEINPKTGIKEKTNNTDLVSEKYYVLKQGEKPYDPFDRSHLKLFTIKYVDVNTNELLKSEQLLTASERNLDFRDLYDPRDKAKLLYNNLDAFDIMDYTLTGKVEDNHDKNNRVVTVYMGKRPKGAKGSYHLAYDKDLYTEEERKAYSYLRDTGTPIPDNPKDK

[6] = viability loss in THP-1 monocytes – THP-1 cells, cytotoxicity control for Vif-APOBEC3G degradation inhibitor project, dose response (AID 1117359); format: functional; conditions: THP-1
[7] = biological target: T3, Eukaryotic translation initiation factor 2-alpha kinase 3 (Homo sapiens, UniProt Q9NZJ5); experiment: Dose response cell-based high-throughput screening assay to measure PERK inhibition. [Related pubchem assays: 1416 ]; format: functional
T3 sequence (Q9NZJ5 whole entry): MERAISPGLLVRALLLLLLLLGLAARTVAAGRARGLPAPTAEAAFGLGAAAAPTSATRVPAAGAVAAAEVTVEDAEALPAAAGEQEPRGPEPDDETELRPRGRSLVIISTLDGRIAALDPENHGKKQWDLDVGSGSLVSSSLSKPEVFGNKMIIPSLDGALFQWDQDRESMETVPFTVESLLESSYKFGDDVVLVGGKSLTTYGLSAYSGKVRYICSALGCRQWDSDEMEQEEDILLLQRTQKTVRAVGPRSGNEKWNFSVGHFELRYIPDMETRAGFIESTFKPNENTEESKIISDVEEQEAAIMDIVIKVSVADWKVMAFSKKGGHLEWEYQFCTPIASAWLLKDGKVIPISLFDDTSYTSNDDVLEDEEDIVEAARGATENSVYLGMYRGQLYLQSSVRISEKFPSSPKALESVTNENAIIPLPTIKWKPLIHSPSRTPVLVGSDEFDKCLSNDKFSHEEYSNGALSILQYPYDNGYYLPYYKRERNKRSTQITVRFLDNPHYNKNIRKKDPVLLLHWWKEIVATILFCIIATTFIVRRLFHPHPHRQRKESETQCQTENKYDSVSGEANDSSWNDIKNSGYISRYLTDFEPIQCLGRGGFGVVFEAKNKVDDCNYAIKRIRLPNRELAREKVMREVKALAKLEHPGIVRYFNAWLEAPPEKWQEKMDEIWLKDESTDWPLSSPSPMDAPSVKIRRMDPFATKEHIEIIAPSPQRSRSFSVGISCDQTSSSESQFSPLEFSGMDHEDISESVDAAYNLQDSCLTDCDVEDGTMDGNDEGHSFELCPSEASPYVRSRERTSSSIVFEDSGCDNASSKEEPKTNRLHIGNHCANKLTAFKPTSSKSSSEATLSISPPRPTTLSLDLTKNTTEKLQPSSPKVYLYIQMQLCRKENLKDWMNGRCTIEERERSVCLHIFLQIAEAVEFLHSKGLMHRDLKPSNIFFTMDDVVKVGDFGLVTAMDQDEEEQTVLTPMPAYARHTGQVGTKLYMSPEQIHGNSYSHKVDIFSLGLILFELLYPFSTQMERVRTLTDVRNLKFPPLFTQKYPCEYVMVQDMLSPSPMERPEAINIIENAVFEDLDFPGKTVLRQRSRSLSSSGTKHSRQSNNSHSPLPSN

[8] = biological target: T3, Eukaryotic translation initiation factor 2-alpha kinase 3; experiment: Counterscreen assay for PERK inhibitors: Dose response cell-based high throughput screening assay to measure inhibition of PERK at 6 hours. [Related pubchem assays: 1522, 1416 ]; format: functional
[9] = biological target: Luciferin 4-monooxygenase (Photinus pyralis, UniProt P08659); experiment: inhibition of purified Photinus pyralis luciferase – biochemical, luminescence, dose response (AID 1891)
[10] = Luminescence Cell-Based Dose Confirmation HTS to Identify Inhibitors of Platelet Dense Granule Release. [Related pubchem assays: 1663 (Primary HTS), 1678 (Summary of Project)]; format: functional
[11] = biological target: T4, Hexokinase HKDC1 (Homo sapiens, UniProt Q2TB90); experiment: inhibition of HKDC1 glucose phosphorylation – biochemical, W721R variant, dose response (AID 504729); format: functional
T4 sequence (Q2TB90 whole entry): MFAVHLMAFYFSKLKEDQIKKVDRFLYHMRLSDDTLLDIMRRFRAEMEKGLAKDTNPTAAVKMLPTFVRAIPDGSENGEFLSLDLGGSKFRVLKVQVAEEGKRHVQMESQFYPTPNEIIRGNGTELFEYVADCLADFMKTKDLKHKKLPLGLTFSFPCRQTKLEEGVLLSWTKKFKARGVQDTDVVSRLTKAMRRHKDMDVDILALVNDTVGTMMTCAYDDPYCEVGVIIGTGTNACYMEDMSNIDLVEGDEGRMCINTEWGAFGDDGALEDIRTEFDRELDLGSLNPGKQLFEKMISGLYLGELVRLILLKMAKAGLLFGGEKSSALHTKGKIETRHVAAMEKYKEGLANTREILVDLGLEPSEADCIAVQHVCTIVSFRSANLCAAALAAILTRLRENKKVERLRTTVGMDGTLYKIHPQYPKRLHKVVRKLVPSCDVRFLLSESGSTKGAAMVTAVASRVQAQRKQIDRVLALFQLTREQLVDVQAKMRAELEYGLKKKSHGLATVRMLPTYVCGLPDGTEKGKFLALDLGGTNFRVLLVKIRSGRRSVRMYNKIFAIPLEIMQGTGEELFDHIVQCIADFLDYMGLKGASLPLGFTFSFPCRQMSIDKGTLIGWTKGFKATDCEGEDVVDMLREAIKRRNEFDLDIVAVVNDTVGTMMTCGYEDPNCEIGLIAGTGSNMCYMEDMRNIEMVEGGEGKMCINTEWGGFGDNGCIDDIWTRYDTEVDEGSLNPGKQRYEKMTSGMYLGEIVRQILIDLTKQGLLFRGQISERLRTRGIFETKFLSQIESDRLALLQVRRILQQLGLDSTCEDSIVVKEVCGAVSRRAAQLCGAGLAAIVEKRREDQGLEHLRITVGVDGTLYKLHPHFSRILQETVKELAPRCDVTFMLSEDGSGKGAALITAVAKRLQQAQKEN

[12] = THP-1 cell cytotoxicity, dose response, cytotoxicity control for non-replicating M. tuberculosis project (AID 489025); format: functional
[13] = HepG2 cell cytotoxicity, dose response, cytotoxicity control for non-replicating M. tuberculosis project (AID 489018); format: functional; conditions: Mycobacterium tuberculosis
[14] = Vero E6 cell cytotoxicity, dose response, cytotoxicity control for non-replicating M. tuberculosis project, secondary assay (AID 492998); format: functional, VeroE6; conditions: Vero C1008
[15] = cells; format: functional
[16] = biological target: Bcl-2-like protein 10 (Homo sapiens, UniProt Q9HD36); experiment: Bcl-B/TR3 peptide binding disruption – biochemical, fluorescence polarization, FITC-TR3 peptide, selectivity assay for Bfl-1 inhibitor project, primary screen (AID 748);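 also: fluorescence polarization from a fluorescein-labelled TR3 peptide binding purified Bcl-B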
[17] = biological target: C-C chemokine receptor type 6 (Homo sapiens, UniProt P51684); experiment: antagonism of CCR6 beta-arrestin recruitment – cell-based, luminescent beta-arrestin readout, dose response (AID 504728); format: functional
[18] = biological target: Genome polyprotein (dengue virus type 2, UniProt P29990); experiment: flavivirus cap methylation enzyme inhibition – biochemical, confirmation dose response, primary screen (AID 588689); format: functional
[19] = biological target: Beta-galactosidase (Escherichia coli, UniProt Q8VNN2); experiment: detection-enzyme interference by beta-gal modulators – biochemical, E. coli enzyme, set 3, artefact control for CCR6 antagonist project, dose response (AID 504712); format: functional
[20] = biological target: Nonstructural protein 1 (Influenza A virus, UniProt Q194T2); format: functional, Influenza A virus (A/California/07/2009(H1N1))
[21] = system: Vero; experiment: viability of Vero cells under compound – cytotoxicity control for flavivirus capping enzyme inhibitors (AID 588742); format: functional; conditions: Chlorocebus sabaeus
[22] = biological target: Melanin-concentrating hormone receptor 1 (Homo sapiens, UniProt Q99705); experiment: Late-stage fluorescence-based counterscreen for antagonists of the G-protein coupled receptor 7 (GPR7): cell-based dose response assay to identify antagonists of the melanin-concentrating hormone receptor 1 (MCHR1). [Related pubchem assays (depositor defined):AID1861, AID1880, AID1952, AID2148, AID2251, AID2257, AID485339]; format: functional;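 also: stimulated with 30 nM MCH peptide agonist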
[23] = biological target: Heat shock protein HSP 90-alpha (Homo sapiens, UniProt P07900); format: functional, organism-based
[24] = system: Vero; experiment: cells; format: functional; conditions: Chlorocebus sabaeus

Sequence of Neurotensin receptor type 1 (P30989 whole entry): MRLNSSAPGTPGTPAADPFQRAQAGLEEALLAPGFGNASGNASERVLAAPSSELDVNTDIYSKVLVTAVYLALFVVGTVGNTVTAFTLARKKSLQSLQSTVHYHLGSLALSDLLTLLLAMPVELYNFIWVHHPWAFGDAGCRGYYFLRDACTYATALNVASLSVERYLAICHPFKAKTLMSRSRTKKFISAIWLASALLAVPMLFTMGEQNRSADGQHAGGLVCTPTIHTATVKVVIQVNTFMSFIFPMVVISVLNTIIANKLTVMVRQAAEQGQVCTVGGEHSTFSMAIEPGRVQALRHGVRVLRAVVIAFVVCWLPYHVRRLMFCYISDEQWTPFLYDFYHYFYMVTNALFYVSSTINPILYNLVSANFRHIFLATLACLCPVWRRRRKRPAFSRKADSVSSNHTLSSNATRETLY
Sequence of Beta-galactosidase (Q8VNN2 whole entry): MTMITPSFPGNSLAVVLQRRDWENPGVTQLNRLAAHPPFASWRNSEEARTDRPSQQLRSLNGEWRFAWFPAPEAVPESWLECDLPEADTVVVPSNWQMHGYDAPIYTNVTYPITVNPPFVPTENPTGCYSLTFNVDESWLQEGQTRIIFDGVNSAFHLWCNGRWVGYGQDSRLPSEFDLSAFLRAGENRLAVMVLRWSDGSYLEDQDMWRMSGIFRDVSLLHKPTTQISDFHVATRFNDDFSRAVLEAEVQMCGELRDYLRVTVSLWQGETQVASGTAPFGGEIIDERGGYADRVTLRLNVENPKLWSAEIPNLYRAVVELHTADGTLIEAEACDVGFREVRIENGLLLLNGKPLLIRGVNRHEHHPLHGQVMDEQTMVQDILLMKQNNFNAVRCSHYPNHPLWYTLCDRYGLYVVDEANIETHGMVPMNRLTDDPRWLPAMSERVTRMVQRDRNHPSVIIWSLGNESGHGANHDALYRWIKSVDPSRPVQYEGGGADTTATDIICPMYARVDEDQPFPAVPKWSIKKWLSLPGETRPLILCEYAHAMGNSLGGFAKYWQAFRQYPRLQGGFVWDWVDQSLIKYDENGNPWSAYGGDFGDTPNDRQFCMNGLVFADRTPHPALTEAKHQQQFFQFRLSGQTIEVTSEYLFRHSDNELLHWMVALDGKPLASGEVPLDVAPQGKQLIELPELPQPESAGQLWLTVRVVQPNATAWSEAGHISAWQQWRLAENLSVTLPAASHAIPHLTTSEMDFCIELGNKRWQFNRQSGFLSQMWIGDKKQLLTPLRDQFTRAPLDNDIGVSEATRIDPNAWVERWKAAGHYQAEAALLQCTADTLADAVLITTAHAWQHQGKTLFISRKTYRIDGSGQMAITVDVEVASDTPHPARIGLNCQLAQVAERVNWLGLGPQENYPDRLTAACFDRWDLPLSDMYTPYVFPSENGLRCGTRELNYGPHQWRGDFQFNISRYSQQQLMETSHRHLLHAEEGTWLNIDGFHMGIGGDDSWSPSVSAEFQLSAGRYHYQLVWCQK
Sequence of C-C chemokine receptor type 6 (P51684 whole entry): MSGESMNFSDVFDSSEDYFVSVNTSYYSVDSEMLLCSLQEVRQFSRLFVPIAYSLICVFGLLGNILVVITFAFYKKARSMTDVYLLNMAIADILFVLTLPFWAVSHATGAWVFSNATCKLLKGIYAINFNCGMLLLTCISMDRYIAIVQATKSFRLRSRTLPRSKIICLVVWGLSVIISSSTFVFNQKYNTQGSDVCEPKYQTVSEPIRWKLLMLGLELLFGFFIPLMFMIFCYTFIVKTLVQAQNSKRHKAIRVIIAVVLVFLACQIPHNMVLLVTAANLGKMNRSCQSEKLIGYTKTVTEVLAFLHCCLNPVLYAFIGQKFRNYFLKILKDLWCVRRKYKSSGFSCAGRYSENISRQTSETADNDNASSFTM
Sequence of Bcl-2-like protein 10 (Q9HD36 whole entry): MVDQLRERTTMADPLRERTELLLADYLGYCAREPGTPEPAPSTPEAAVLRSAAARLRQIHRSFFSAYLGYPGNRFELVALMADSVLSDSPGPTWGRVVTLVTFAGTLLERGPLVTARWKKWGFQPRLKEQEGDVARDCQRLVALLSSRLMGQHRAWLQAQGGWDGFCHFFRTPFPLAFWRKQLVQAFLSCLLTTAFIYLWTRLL
Sequence of Luciferin 4-monooxygenase (P08659 whole entry): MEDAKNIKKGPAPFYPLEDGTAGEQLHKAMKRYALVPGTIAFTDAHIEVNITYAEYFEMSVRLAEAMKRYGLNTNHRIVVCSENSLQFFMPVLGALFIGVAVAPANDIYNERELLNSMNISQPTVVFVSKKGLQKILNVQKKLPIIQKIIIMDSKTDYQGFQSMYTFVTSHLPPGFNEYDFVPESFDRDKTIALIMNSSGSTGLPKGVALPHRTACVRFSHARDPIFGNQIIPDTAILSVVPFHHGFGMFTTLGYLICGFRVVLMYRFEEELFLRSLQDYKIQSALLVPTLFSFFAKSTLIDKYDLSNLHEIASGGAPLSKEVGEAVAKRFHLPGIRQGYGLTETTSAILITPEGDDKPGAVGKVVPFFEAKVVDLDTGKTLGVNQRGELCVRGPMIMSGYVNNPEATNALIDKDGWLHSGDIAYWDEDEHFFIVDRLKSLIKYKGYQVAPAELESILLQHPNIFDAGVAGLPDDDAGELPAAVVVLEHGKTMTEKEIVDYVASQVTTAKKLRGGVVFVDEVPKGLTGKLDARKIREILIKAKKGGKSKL
Sequence of Melanin-concentrating hormone receptor 1 (Q99705 whole entry): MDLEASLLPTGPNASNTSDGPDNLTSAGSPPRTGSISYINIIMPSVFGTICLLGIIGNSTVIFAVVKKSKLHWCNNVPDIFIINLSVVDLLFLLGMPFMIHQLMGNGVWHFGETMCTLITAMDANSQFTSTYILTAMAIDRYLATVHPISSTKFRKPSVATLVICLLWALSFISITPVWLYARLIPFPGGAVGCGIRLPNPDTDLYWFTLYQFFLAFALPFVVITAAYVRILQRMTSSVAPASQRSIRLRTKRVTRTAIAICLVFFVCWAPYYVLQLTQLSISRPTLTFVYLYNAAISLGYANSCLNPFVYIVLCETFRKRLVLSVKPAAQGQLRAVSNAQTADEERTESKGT
Sequence of Genome polyprotein (P29990 2492-3391 limits assumed): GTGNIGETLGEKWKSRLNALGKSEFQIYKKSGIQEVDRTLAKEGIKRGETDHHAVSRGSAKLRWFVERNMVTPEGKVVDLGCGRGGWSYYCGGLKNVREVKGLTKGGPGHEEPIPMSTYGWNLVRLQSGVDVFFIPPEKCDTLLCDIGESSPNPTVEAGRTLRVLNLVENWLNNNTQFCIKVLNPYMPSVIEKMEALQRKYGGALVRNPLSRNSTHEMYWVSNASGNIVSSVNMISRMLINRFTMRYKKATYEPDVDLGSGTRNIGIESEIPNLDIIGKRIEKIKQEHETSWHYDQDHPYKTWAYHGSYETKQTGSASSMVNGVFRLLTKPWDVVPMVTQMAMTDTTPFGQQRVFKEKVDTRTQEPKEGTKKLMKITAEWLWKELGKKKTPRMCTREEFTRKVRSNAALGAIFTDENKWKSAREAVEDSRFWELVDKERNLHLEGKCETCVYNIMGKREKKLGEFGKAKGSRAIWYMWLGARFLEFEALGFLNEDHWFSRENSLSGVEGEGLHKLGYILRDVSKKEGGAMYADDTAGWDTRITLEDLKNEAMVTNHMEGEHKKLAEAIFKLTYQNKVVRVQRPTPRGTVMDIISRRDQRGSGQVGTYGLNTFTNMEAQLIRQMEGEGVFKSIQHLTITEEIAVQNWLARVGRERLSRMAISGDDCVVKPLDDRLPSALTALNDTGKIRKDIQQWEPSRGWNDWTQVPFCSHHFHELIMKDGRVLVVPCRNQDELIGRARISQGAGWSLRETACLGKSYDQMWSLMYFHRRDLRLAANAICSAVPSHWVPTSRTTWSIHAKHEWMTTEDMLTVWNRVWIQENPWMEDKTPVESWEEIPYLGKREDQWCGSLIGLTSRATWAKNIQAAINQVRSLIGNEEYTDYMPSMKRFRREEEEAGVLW
Sequence of Nonstructural protein 1 (Q194T2 whole entry): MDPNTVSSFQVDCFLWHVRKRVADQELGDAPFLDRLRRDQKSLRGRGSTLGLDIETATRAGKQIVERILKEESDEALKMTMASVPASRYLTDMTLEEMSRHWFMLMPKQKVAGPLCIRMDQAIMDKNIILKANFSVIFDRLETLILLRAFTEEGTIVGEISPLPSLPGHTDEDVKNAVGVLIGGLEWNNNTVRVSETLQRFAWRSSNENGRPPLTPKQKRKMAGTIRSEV

For `CC(=O)n1cc(C(C[N+](=O)[O-])SCCN)c2ccccc21` (stereo unspecified), the EC50 [1] was 14.2 µM (active).
In the case of `CN1C(=O)/C(=C/c2cccn2-c2ccc3ccccc3c2)C(=O)NC1=S`, the EC50 [2] is reported as 5.56 µM (active), the EC50 [1] is reported as 12.1 µM (active) and the AC50 [3] is reported as 9.42 µM (active). For the same compound, the EC50 [4] was > 50 µM (not active), the EC50 [5] was 4.97 µM (active) and the CC50 [6] was 14.5 µM (active).
With `Cc1csc2nc(CNC(=O)CCC(=O)O)cn12` the EC50 [7] was > 55.7 µM (not active) and the EC50 [8] was > 55.7 µM (not active).
In the case of `CC(C)c1nc2oc3c(NCC4CCCO4)ncnc3c2c2c1COC(C)(C)C2` (stereo unspecified), the EC50 [9] is reported as > 112 µM (not active), the EC50 [10] is reported as > 112 µM (not active) and the IC50 [11] is reported as 3.81 µM (active).
For `O=c1c2cc(Cl)ccc2nc(-c2ccc(Cl)c(Cl)c2)n1O`, the EC50 [2] was 0.402 µM (active), the CC50 [12] was 14.2 µM (active) and the CC50 [13] was > 20 µM (active). For the same compound, the EC50 [4] was 0.949 µM (active), the CC50 [14] was 10.9 µM (active) and the IC50 [15] was 4.14 µM (active).
In the case of `CCCCc1c(C)nc2c(OC)cccc2c1SCC(=O)O`, the EC50 [7] is reported as > 55.7 µM (not active) and the EC50 [8] is reported as > 55.7 µM (not active).
With `COc1ccc(N2C(=O)c3cccc4cccc(c34)C2=O)nn1` the IC50 [16] was > 50 µM (inactive).
With `Nc1c(S(=O)(=O)O)cc(NC(=O)c2ccccc2)c2c1C(=O)c1ccccc1C2=O` the IC50 [17] was 26.9 µM (inactive), the IC50 [18] was 34.3 µM (active) and the IC50 [19] was > 66.6 µM (inactive). The IC50 [20] was 13.3 µM (active) and the CC50 [21] was > 40 µM (active).
In the case of `COc1ccc(Oc2c(C=O)cnn(-c3ccc(C(C)C)cc3)c2=O)cc1`, the IC50 [22] is reported as 4.8 µM (active).
In the case of `COc1cccc(/C=C2/CCC(CN(C)C)C2=O)c1` (stereo unspecified), the IC50 [17] is reported as 32.3 µM (inactive), the IC50 [19] is reported as > 66.6 µM (inactive) and the AC50 [23] is reported as 4.55 µM (active). The CC50 [24] was 22.4 µM (active).
